Several values for one entry are separate records, joined by “and”; a condition that tells them apart may be missing. Equal entries are not always repeated.
Assays:
[1] = Molar enthalpy of transition or fusion; conditions: DSC
[2] = for Normal melting temperature: DTA

CC(=O)Oc1ccccc1C(C)=O [2'-acetoxyacetophenone]
Crystal
Conditions | Molar enthalpy of transition or fusion [kcal/mol] | Normal melting temperature [°C]
[1] | 7.72 | –
[2] | – | 88.7

[2]
Conditions | vapor or sublimation pressure
298.01 K, Crystal, Calculated from knudsen effusion weight loss | 6.1e-05 kPa and 6e-05 kPa
299.4 K, Crystal, Calculated from knudsen effusion weight loss | 7.4e-05 kPa
301.22 K, Crystal, Calculated from knudsen effusion weight loss | 9.7e-05 kPa and 9.6e-05 kPa
303.17 K, Crystal, Calculated from knudsen effusion weight loss | 0.000121 kPa and 0.000122 kPa and 0.000124 kPa
305.39 K, Crystal, Calculated from knudsen effusion weight loss | 0.000164 kPa and 0.000166 kPa
307.2 K, Crystal, Calculated from knudsen effusion weight loss | 0.000214 kPa and 0.000217 kPa and 0.000215 kPa
309.14 K, Crystal, Calculated from knudsen effusion weight loss | 0.000275 kPa and 0.000277 kPa
311.34 K, Crystal, Calculated from knudsen effusion weight loss | 0.000362 kPa and 0.000361 kPa and 0.000365 kPa
313 K, Crystal, Closed cell (Static) method | 0.00046 kPa
313.21 K, Crystal, Calculated from knudsen effusion weight loss | 0.000467 kPa and 0.000465 kPa and 0.000469 kPa
315.01 K, Crystal, Closed cell (Static) method | 0.0006 kPa
315.13 K, Crystal, Calculated from knudsen effusion weight loss | 0.00059 kPa and 0.000588 kPa and 0.000593 kPa
316.99 K, Crystal, Closed cell (Static) method | 0.00076 kPa
317.31 K, Crystal, Calculated from knudsen effusion weight loss | 0.000786 kPa and 0.000778 kPa
318.98 K, Crystal, Closed cell (Static) method | 0.00097 kPa
319.28 K, Crystal, Calculated from knudsen effusion weight loss | 0.00102 kPa and 0.001014 kPa and 0.001001 kPa
320.96 K, Crystal, Closed cell (Static) method | 0.00123 kPa
321.27 K, Crystal, Calculated from knudsen effusion weight loss | 0.001305 kPa and 0.001292 kPa and 0.001286 kPa
322.97 K, Crystal, Closed cell (Static) method | 0.00156 kPa
324.96 K, Crystal, Closed cell (Static) method | 0.00199 kPa
326.91 K, Crystal, Closed cell (Static) method | 0.0025 kPa
328.91 K, Crystal, Closed cell (Static) method | 0.00314 kPa
330.92 K, Crystal, Closed cell (Static) method | 0.00397 kPa
332.88 K, Crystal, Closed cell (Static) method | 0.00495 kPa
334.86 K, Crystal, Closed cell (Static) method | 0.00619 kPa
336.81 K, Crystal, Closed cell (Static) method | 0.00762 kPa
338.84 K, Crystal, Closed cell (Static) method | 0.00958 kPa
340.8 K, Crystal, Closed cell (Static) method | 0.01175 kPa
342.74 K, Crystal, Closed cell (Static) method | 0.01458 kPa
344.72 K, Crystal, Closed cell (Static) method | 0.01786 kPa
344.73 K, Metastable liquid, Closed cell (Static) method | 0.03005 kPa
346.7 K, Crystal, Closed cell (Static) method | 0.02195 kPa
346.73 K, Metastable liquid, Closed cell (Static) method | 0.03465 kPa
348.65 K, Metastable liquid, Closed cell (Static) method | 0.03975 kPa
348.68 K, Crystal, Closed cell (Static) method | 0.02665 kPa
350.65 K, Metastable liquid, Closed cell (Static) method | 0.04556 kPa
350.69 K, Crystal, Closed cell (Static) method | 0.0325 kPa
352.61 K, Crystal, Closed cell (Static) method | 0.0395 kPa
352.64 K, Metastable liquid, Closed cell (Static) method | 0.05208 kPa
354.59 K, Metastable liquid, Closed cell (Static) method | 0.05928 kPa
354.61 K, Crystal, Closed cell (Static) method | 0.04802 kPa
356.54 K, Crystal, Closed cell (Static) method | 0.05812 kPa
356.54 K, Metastable liquid, Closed cell (Static) method | 0.06775 kPa
358.51 K, Metastable liquid, Closed cell (Static) method | 0.07683 kPa
360.53 K, Metastable liquid, Closed cell (Static) method | 0.08729 kPa
362.46 K, Metastable liquid, Closed cell (Static) method | 0.0988 kPa
364.45 K, Closed cell (Static) method, Liquid | 0.1124 kPa
366.49 K, Closed cell (Static) method, Liquid | 0.127 kPa
368.43 K, Closed cell (Static) method, Liquid | 0.1443 kPa
370.48 K, Closed cell (Static) method, Liquid | 0.162 kPa
372.37 K, Closed cell (Static) method, Liquid | 0.1819 kPa
374.39 K, Closed cell (Static) method, Liquid | 0.205 kPa
376.34 K, Closed cell (Static) method, Liquid | 0.2324 kPa
378.28 K, Closed cell (Static) method, Liquid | 0.2588 kPa
380.23 K, Closed cell (Static) method, Liquid | 0.2847 kPa
382.24 K, Closed cell (Static) method, Liquid | 0.3195 kPa
384.15 K, Closed cell (Static) method, Liquid | 0.3609 kPa
386.19 K, Closed cell (Static) method, Liquid | 0.3984 kPa
388.15 K, Closed cell (Static) method, Liquid | 0.4446 kPa
390.12 K, Closed cell (Static) method, Liquid | 0.4936 kPa
392.04 K, Closed cell (Static) method, Liquid | 0.5463 kPa
394.07 K, Closed cell (Static) method, Liquid | 0.6059 kPa
395.98 K, Closed cell (Static) method, Liquid | 0.6687 kPa
398 K, Closed cell (Static) method, Liquid | 0.7392 kPa

CC(=O)Oc1cccc(C(C)=O)c1 [3-acetoxyacetophenone]
Conditions | Molar enthalpy of transition or fusion, Crystal 1 [kcal/mol] | Molar enthalpy of transition or fusion, Crystal 2 [kcal/mol] | Normal melting temperature, Crystal 1 [°C] | Triple point temperature, Crystal 2, DSC [K]
[1] | 5.54 | 0.239 | – | –
[2] | – | – | 43.1 | 308.1

[2], Crystal 2, Calculated from knudsen effusion weight loss
Conditions | vapor or sublimation pressure
297.65 K | 0.000123 kPa and 0.000124 kPa
299.16 K | 0.000153 kPa and 0.000152 kPa
300.09 K | 0.000169 kPa and 0.000167 kPa and 0.000168 kPa
301.23 K | 0.000194 kPa and 0.000196 kPa
302.21 K | 0.00023 kPa
303.25 K | 0.000262 kPa and 0.000259 kPa
304.24 K | 0.000293 kPa and 0.00029 kPa
305.23 K | 0.000337 kPa and 0.00034 kPa and 0.000334 kPa
306.24 K | 0.000387 kPa and 0.000383 kPa and 0.000389 kPa
307.26 K | 0.000436 kPa and 0.000441 kPa and 0.000434 kPa

[2]
Conditions | vapor or sublimation pressure [kPa]
305.09 K, Metastable liquid, Closed cell (Static) method | 0.00046
307.07 K, Metastable liquid, Closed cell (Static) method | 0.00055
309.03 K, Metastable liquid, Closed cell (Static) method | 0.00067
311.04 K, Metastable liquid, Closed cell (Static) method | 0.00082
312.98 K, Metastable liquid, Closed cell (Static) method | 0.001
315.01 K, Closed cell (Static) method, Liquid | 0.00122
317.02 K, Closed cell (Static) method, Liquid | 0.00147
319.06 K, Closed cell (Static) method, Liquid | 0.00173
320.99 K, Closed cell (Static) method, Liquid | 0.00206
323.04 K, Closed cell (Static) method, Liquid | 0.00247
324.96 K, Closed cell (Static) method, Liquid | 0.00291
326.99 K, Closed cell (Static) method, Liquid | 0.00346
328.93 K, Closed cell (Static) method, Liquid | 0.0041
330.94 K, Closed cell (Static) method, Liquid | 0.00489
332.92 K, Closed cell (Static) method, Liquid | 0.00565
334.91 K, Closed cell (Static) method, Liquid | 0.00677
336.87 K, Closed cell (Static) method, Liquid | 0.00798
338.84 K, Closed cell (Static) method, Liquid | 0.00935
340.83 K, Closed cell (Static) method, Liquid | 0.01079
342.8 K, Closed cell (Static) method, Liquid | 0.01271
344.79 K, Closed cell (Static) method, Liquid | 0.01475
346.92 K, Closed cell (Static) method, Liquid | 0.01728
348.74 K, Closed cell (Static) method, Liquid | 0.01981
350.69 K, Closed cell (Static) method, Liquid | 0.02301
352.67 K, Closed cell (Static) method, Liquid | 0.02636
354.64 K, Closed cell (Static) method, Liquid | 0.03047
356.61 K, Closed cell (Static) method, Liquid | 0.0348
358.61 K, Closed cell (Static) method, Liquid | 0.03975
360.51 K, Closed cell (Static) method, Liquid | 0.04544
362.54 K, Closed cell (Static) method, Liquid | 0.05195
364.52 K, Closed cell (Static) method, Liquid | 0.05948
366.49 K, Closed cell (Static) method, Liquid | 0.06748
368.46 K, Closed cell (Static) method, Liquid | 0.07663
